Test results as given in US9833497B2, “Human originated EGF domain proteins and use of the same” (CHENGDU SOURCEBIO LIMITED-LIABILITY COMPANY, priority 2013, dated 2017).

Experiments:
Format in all cases: cell-based
Proteus mirabilis = assay: MIC against Gram-negative bacteria: Proteus mirabilis
Outline: (§1)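 Growth inhibition by human EGF domain proteins was scored in LB liquid culture seeded at 5×10^5 CFU/mL. Protein was applied as a two-fold dilution series in triplicate, with shaking incubation at 37° C; MIC is the lowest concentration giving no growth.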

Moraxella catarrhalis = assay: MIC against Gram-negative bacteria: Moraxella catarrhalis
Outline: as §1

E. coli BL21 = assay: MIC against Gram-negative bacteria: E. coli BL21
Outline: as §1

Pseudomonas aeruginosa = assay: MIC against Gram-negative bacteria: Pseudomonas aeruginosa
Outline: as §1

Citrobacter diversus = assay: MIC against Gram-negative bacteria: Citrobacter diversus
Outline: as §1

Klebsiella pneumonia = assay: MIC against Gram-negative bacteria: Klebsiella pneumonia
Outline: as §1

Proteus vulgaris = assay: MIC against Gram-negative bacteria: Proteus vulgaris
Outline: as §1

Aeromonas hydrophila = assay: MIC against Gram-negative bacteria: Aeromonas hydrophila
Outline: as §1

Enterobacter cloacae = assay: MIC against Gram-negative bacteria: Enterobacter cloacae
Outline: as §1

Serratia marcescens = assay: MIC against Gram-negative bacteria: Serratia marcescens
Outline: as §1

E. coli DH5α = assay: Antibacterial activity: MIC and growth curve against E. coli DH5α in 96-well plate; conditions: minimal inhibitory concentration against E. coli DH5α; 96-well plate, 5×10^5 CFU/mL, 37° C., judged after 8 h
Outline: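 MIC taken as lowest protein level with no bacterial growth, tracked by A600 every 30 min during 37 °C, 175 rpm culture. Two-fold protein series 50-12.5 μg/mL final, triplicate wells, against 5×10^5 CFU/mL of LB-washed mid-log cells.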

[1] = 96-well plate, 5×10^5 CFU/mL, 37° C., 10 h
[2] = P. mirabilis, 10 h cultivation at 37° C.
[3] = M. catarrhalis, 10 h cultivation at 37° C.
[4] = E. coli BL21, 10 h cultivation at 37° C.
[5] = P. aeruginosa, 10 h cultivation at 37° C.
[6] = C. diversus, 10 h cultivation at 37° C.
[7] = K. pneumonia, 10 h cultivation at 37° C.
[8] = P. vulgaris, 10 h cultivation at 37° C.
[9] = A. hydrophila, 10 h cultivation at 37° C.
[10] = E. cloacae, 10 h cultivation at 37° C.
[11] = S. marcescens, 10 h cultivation at 37° C.

PRT488 (DRCQLQTRCQNGGQWDGLKCQCPSTFYGSSCE; listed as Homo sapiens)
MIC against P. mirabilis (Proteus mirabilis; [1]): 50 µg/mL | MIC against M. catarrhalis (Moraxella catarrhalis; [1]): 12.5 µg/mL | MIC against E. coli BL21 (E. coli BL21; [1]): 12.5 µg/mL | MIC against P. aeruginosa (Pseudomonas aeruginosa; [1]): 50 µg/mL | MIC against C. diversus (Citrobacter diversus; [1]): 50 µg/mL | MIC against K. pneumonia (Klebsiella pneumonia; [1]): 12.5 µg/mL | MIC against P. vulgaris (Proteus vulgaris; [1]): 12.5 µg/mL | MIC against A. hydrophila (Aeromonas hydrophila; [1]): 12.5 µg/mL | MIC against E. cloacae (Enterobacter cloacae; [1]): 50 µg/mL | MIC against S. marcescens (Serratia marcescens; [1]): 50 µg/mL | MIC (E. coli DH5α): 50 µg/mL

PRT1243 (FGESCEQQCPHCRHGEACEPDTGHCQRCDPGWLGPRCE; listed as Homo sapiens)
MIC against P. mirabilis (Proteus mirabilis; Proteus mirabilis, 96-well plate, 5×10^5 CFU/mL, 37° C., 10 h): 50 µg/mL | MIC against M. catarrhalis (Moraxella catarrhalis; Moraxella catarrhalis, 96-well plate, 5×10^5 CFU/mL, 37° C., 10 h): 25 µg/mL | MIC against E. coli BL21 (E. coli BL21; E. coli BL21, 96-well plate, 5×10^5 CFU/mL, 37° C., 10 h): 50 µg/mL | MIC against P. aeruginosa (Pseudomonas aeruginosa; Pseudomonas aeruginosa, 96-well plate, 5×10^5 CFU/mL, 37° C., 10 h): 12.5 µg/mL | MIC against C. diversus (Citrobacter diversus; Citrobacter diversus, 96-well plate, 5×10^5 CFU/mL, 37° C., 10 h): 12.5 µg/mL | MIC against K. pneumonia (Klebsiella pneumonia; Klebsiella pneumonia, 96-well plate, 5×10^5 CFU/mL, 37° C., 10 h): 50 µg/mL | MIC against P. vulgaris (Proteus vulgaris; Proteus vulgaris, 96-well plate, 5×10^5 CFU/mL, 37° C., 10 h): 25 µg/mL | MIC against A. hydrophila (Aeromonas hydrophila; Aeromonas hydrophila, 96-well plate, 5×10^5 CFU/mL, 37° C., 10 h): 50 µg/mL | MIC against E. cloacae (Enterobacter cloacae; Enterobacter cloacae, 96-well plate, 5×10^5 CFU/mL, 37° C., 10 h): 12.5 µg/mL | MIC against S. marcescens (Serratia marcescens; Serratia marcescens, 96-well plate, 5×10^5 CFU/mL, 37° C., 10 h): 12.5 µg/mL | MIC (E. coli DH5α): 12.5 µg/mL

PRT881 (AEGPCGERPCENGGICFLLDGHPTCDCSTTGYGGKLCS; listed as Homo sapiens)
MIC (μg/mL) P. mirabilis (Proteus mirabilis; P. mirabilis, 10 h cultivation at 37° C., 5×10^5 CFU/mL): 12.5 µg/mL | MIC (μg/mL) M. catarrhalis (Moraxella catarrhalis; M. catarrhalis, 10 h cultivation at 37° C., 5×10^5 CFU/mL): 25 µg/mL | MIC (μg/mL) E. coli BL21 (E. coli BL21; E. coli BL21, 10 h cultivation at 37° C., 5×10^5 CFU/mL): 12.5 µg/mL | MIC (μg/mL) P. aeruginosa (Pseudomonas aeruginosa; P. aeruginosa, 10 h cultivation at 37° C., 5×10^5 CFU/mL): 12.5 µg/mL | MIC (μg/mL) C. diversus (Citrobacter diversus; C. diversus, 10 h cultivation at 37° C., 5×10^5 CFU/mL): 12.5 µg/mL | MIC (μg/mL) K. pneumonia (Klebsiella pneumonia; K. pneumonia, 10 h cultivation at 37° C., 5×10^5 CFU/mL): 25 µg/mL | MIC (μg/mL) P. vulgaris (Proteus vulgaris; P. vulgaris, 10 h cultivation at 37° C., 5×10^5 CFU/mL): 25 µg/mL | MIC (μg/mL) A. hydrophila (Aeromonas hydrophila; A. hydrophila, 10 h cultivation at 37° C., 5×10^5 CFU/mL): 25 µg/mL | MIC (μg/mL) E. cloacae (Enterobacter cloacae; E. cloacae, 10 h cultivation at 37° C., 5×10^5 CFU/mL): 12.5 µg/mL | MIC (μg/mL) S. marcescens (Serratia marcescens; S. marcescens, 10 h cultivation at 37° C., 5×10^5 CFU/mL): 12.5 µg/mL | MIC (E. coli DH5α): 12.5 µg/mL

PRT1023 (PINYCETGLHNCDIPQRAQCIYTGGSSYTCSCLPGFSGDGQACQ; listed as Homo sapiens)
MIC (Proteus mirabilis; [2]): 12.5 µg/mL | MIC (Moraxella catarrhalis; [3]): 12.5 µg/mL | MIC (E. coli BL21; [4]): 12.5 µg/mL | MIC (Pseudomonas aeruginosa; [5]): 25 µg/mL | MIC (Citrobacter diversus; [6]): 25 µg/mL | MIC (Klebsiella pneumonia; [7]): 12.5 µg/mL | MIC (Proteus vulgaris; [8]): 50 µg/mL | MIC (Aeromonas hydrophila; [9]): 12.5 µg/mL | MIC (Enterobacter cloacae; [10]): 25 µg/mL | MIC (Serratia marcescens; [11]): 12.5 µg/mL | MIC (E. coli DH5α): 25 µg/mL

PRT1015 (DVNECFQDPGPCPKGTSCHNTLGSFQCLCPVGQEGPRCE; listed as Homo sapiens)
MIC (Proteus mirabilis; [2]): 50 µg/mL | MIC (Moraxella catarrhalis; [3]): 12.5 µg/mL | MIC (E. coli BL21; [4]): 50 µg/mL | MIC (Pseudomonas aeruginosa; [5]): 12.5 µg/mL | MIC (Citrobacter diversus; [6]): 50 µg/mL | MIC (Klebsiella pneumonia; [7]): 50 µg/mL | MIC (Proteus vulgaris; [8]): 12.5 µg/mL | MIC (Aeromonas hydrophila; [9]): 25 µg/mL | MIC (Enterobacter cloacae; [10]): 12.5 µg/mL | MIC (Serratia marcescens; [11]): 50 µg/mL | MIC (E. coli DH5α): 12.5 µg/mL

PRT478 (ATQYCSRAQCHGHGRCVRRNPSASTFLHLSTNSFRLVPGHAPGEPQLRPVGELSWADIDH; listed as Homo sapiens)
MIC against P. mirabilis (Proteus mirabilis; [1]): 50 µg/mL | MIC against M. catarrhalis (Moraxella catarrhalis; [1]): 25 µg/mL | MIC against E. coli BL21 (E. coli BL21; [1]): 25 µg/mL | MIC against P. aeruginosa (Pseudomonas aeruginosa; [1]): 12.5 µg/mL | MIC against C. diversus (Citrobacter diversus; [1]): 100 µg/mL | MIC against K. pneumonia (Klebsiella pneumonia; [1]): 25 µg/mL | MIC against P. vulgaris (Proteus vulgaris; [1]): 25 µg/mL | MIC against A. hydrophila (Aeromonas hydrophila; [1]): 25 µg/mL | MIC against E. cloacae (Enterobacter cloacae; [1]): 50 µg/mL | MIC against S. marcescens (Serratia marcescens; [1]): 12.5 µg/mL | MIC (E. coli DH5α): 50 µg/mL

PRT1386 (GSRACPRDCRGRGRCENGVCVCNAGYSGEDC; listed as Homo sapiens)
MIC against P. mirabilis (Proteus mirabilis; Proteus mirabilis, 5×10^5 CFU/mL, 10 h cultivation at 37° C.): 12.5 µg/mL | MIC against M. catarrhalis (Moraxella catarrhalis; Moraxella catarrhalis, 5×10^5 CFU/mL, 10 h cultivation at 37° C.): 12.5 µg/mL | MIC against E. coli BL21 (E. coli BL21; E. coli BL21, 5×10^5 CFU/mL, 10 h cultivation at 37° C.): 12.5 µg/mL | MIC against P. aeruginosa (Pseudomonas aeruginosa; Pseudomonas aeruginosa, 5×10^5 CFU/mL, 10 h cultivation at 37° C.): 25 µg/mL | MIC against C. diversus (Citrobacter diversus; Citrobacter diversus, 5×10^5 CFU/mL, 10 h cultivation at 37° C.): 12.5 µg/mL | MIC against K. pneumonia (Klebsiella pneumonia; Klebsiella pneumonia, 5×10^5 CFU/mL, 10 h cultivation at 37° C.): 12.5 µg/mL | MIC against P. vulgaris (Proteus vulgaris; Proteus vulgaris, 5×10^5 CFU/mL, 10 h cultivation at 37° C.): 25 µg/mL | MIC against A. hydrophila (Aeromonas hydrophila; Aeromonas hydrophila, 5×10^5 CFU/mL, 10 h cultivation at 37° C.): 12.5 µg/mL | MIC against E. cloacae (Enterobacter cloacae; Enterobacter cloacae, 5×10^5 CFU/mL, 10 h cultivation at 37° C.): 25 µg/mL | MIC against S. marcescens (Serratia marcescens; Serratia marcescens, 5×10^5 CFU/mL, 10 h cultivation at 37° C.): 12.5 µg/mL | MIC (E. coli DH5α): 25 µg/mL
